Laboratory results: patent publication US20250295655A1, “BRUTON'S KINASE INHIBITORS FOR THE TREATMENT OF A SUDDEN ALLERGIC REACTION” (ALK-ABELLÓ A/S, priority 2022, published 2025)

Tests used:
[1] = system: basophils; assay: Basophil activation (CD63 FACS) after allergen stimulation, BTKi added before or after; type: cell-based, human; settings: BTKi 1000 or 5000 nM added before or 1, 5, 15, 30 min after allergen stimulation; vs water control
Protocol: PBMCs were isolated from heparinized blood using Leucoseptubes (Greiner 227390) with Lymfoprep (Fresenius Kabi 1114547). Following isolation, the cells were washed and resuspended in RPMI 0.5% HSA (RPMI 1640 Gibco 72400-021, HSA Sigma A8763) to 0.25× original blood volume. 2 ng/ml of cytokine IL-3 (RD Peprotec cat nr 200-03) was added to the cells for Basophil priming with final 1 ng/ml. 50 μl of the cell suspension was used for each test, corresponding to 200 μl blood.
The test can be carried out with any BTKi. In the present example, the following BTKis were tested: • Acalabrutinib (Cat A-7337, 100 mM in DMSO) was diluted in RPMI 0.5% HSA to a concentration of 10,000 and 2,000 nM. • Ibrutinib was diluted in RPMI 0.5% HSA to a concentration of 20.000, 5.000 and 1.000 nM. • Branebrutinib was diluted in RPMI 0.5% HSA to a concentration of 20.000 and 5.000 nM. • Remibrutinib was diluted in RPMI 0.5% HSA to a concentration of 20.000 and 5.000 nM. • Pirtobrutinib was diluted in RPMI 0.5% HSA to a concentration of 20.000 and 5.000 nM.
Allergens: Grass pollen extract of the species Phleum pratense (ALK) was diluted in RPMI 0.5%-HSA to five concentrations of 100, 10, 1.0, 0.1 and 0.01 ng/ml. House dust mite allergen extract of the species Dermatophagoides pterinussinus (Derp ex) were made in concentrations of 0.1, 1 and 10 ug/ml by dilution in RPMI 0.5% HSA.
The experiment was performed in 96 deep-well plates. 50 μl cell suspension (as described above) was added to each well. 50 μl activation stimuli and 100 μl BTK inhibitor or buffer were added at different time points (t=0 min, 5 min, 15 min or 30 min). Following addition of the components, the plate was incubated at 37° C. water bath for one hour. After incubation, the activation was stopped by adding 500 μl FACS FLOW (BD342003), 0.5% BSA (Fisher scientific BP9703-100)+10 mM EDTA (Invitrogen 15575-038). The plate was centrifuged for 5 min, at 600×G and 4° C. Supernatants were harvested and used for measurement of histamine by ELISA (supplier). Cell pellets were further washed and stained for FACS analysis with CD63 FITC (BD 557288) CD203c APC (e-bio) and CD123 PE (BD340545) using standard FACS staining procedure, 30 min on ice protected from light, followed by fixation with Cell Fix (BD) before analysis on Fortessa flowcytometer. Flowcytometer data was analyzed using FlowJo software and statistical data from here used for data analysis.

[2] = system: mast cell and basophil reactivity to food; settings: ibrutinib daily for up to seven days before allergen exposure; cited from earlier work
[3] = system: ex-vivo blood basophils; settings: leukemia patient treated with ibrutinib; cited from earlier work
[4] = system: basophil cells; settings: pretreatment of basophil cells before allergen exposure; cited from earlier work
[5] = system: JAK2/STAT3 pathway; settings: cited from earlier work

Row | Structure (SMILES) | activation of cells after stimulation with an allergen (percent activation of basophils) [1] | mast cell and basophil reactivity to food (SPT, BAT) [2] | IgE-dependent histamine release in ex-vivo blood basophils [3] | IgE-mediated histamine release [4] | inhibition of JAK2/STAT3 pathway induced by Concavalin A [5]
1 | C=CC(=O)N(C)CCOc1c(N)ncnc1-c1cc(F)cc(NC(=O)c2ccc(C3CC3)cc2F)c1C [Remibrutinib, N-[3-[6-amino-5-[2-[methyl(prop-2-enoyl)amino]ethoxy]pyrimidin-4-yl]-5-fluoro-2-methylphenyl]-4-cyclopropyl-2-fluorobenzamide] | able to decrease the activation of cells | – | – | – | –
2 | CC#CC(=O)N[C@H]1CCCN(c2c(F)cc(C(N)=O)c3[nH]c(C)c(C)c23)C1 [Branebrutinib, 4-[(3S)-3-(but-2-ynoylamino)piperidin-1-yl]-5-fluoro-2,3-dimethyl-1H-indole-7-carboxamide] | able to decrease the activation of cells | – | – | – | –
3 | C=CC(=O)N1CCC[C@@H](n2nc(-c3ccc(Oc4ccccc4)cc3)c3c(N)ncnc32)C1 [Ibrutinib, 1-[(3R)-3-[4-amino-3-(4-phenoxyphenyl)-1H-pyrazolo[3,4-d]pyrimidin-1-yl]-1-piperidinyl]-2-propen-1-one] | able to decrease the activation of cells | can reduce mast cell and basophil reactivity | largely suppressed | inhibit IgE-mediated histamine release | able to inhibit
4 | COc1ccc(F)cc1C(=O)NCc1ccc(-c2nn([C@@H](C)C(F)(F)F)c(N)c2C(N)=O)cc1 [Pirtobrutinib, 5-amino-3-[4-[[(5-fluoro-2-methoxybenzoyl)amino]methyl]phenyl]-1-[(2S)-1,1,1-trifluoropropan-2-yl]pyrazole-4-carboxamide] | able to decrease the activation of cells | – | – | – | –
